Experimental data taken from patent US12479850B2, “Compound having Axl and c-Met kinase inhibitory activity, preparation thereof and application thereof” (Shanghai Institute of Materia Medica, Chinese Academy of …, priority 2019, dated 2025).

Columns and labels:
[1] = target: T1, Axl kinase domain recombinant protein (Homo sapiens, UniProt P30530); assay: ELISA kinase activity assay, Axl
T1 sequence (P30530 536-807 limits assumed): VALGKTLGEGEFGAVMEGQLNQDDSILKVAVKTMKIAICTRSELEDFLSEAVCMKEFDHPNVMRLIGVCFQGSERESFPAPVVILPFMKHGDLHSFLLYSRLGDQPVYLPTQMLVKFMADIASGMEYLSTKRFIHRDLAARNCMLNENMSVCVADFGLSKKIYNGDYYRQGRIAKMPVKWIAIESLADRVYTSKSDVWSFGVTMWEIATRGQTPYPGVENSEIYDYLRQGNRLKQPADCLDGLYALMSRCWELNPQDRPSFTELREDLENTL

[2] = target: c-Met kinase domain recombinant protein (Homo sapiens, UniProt P08581); assay: ELISA kinase activity assay, c-Met
Chain of c-Met kinase domain recombinant protein (P08581 1078-1345 limits assumed): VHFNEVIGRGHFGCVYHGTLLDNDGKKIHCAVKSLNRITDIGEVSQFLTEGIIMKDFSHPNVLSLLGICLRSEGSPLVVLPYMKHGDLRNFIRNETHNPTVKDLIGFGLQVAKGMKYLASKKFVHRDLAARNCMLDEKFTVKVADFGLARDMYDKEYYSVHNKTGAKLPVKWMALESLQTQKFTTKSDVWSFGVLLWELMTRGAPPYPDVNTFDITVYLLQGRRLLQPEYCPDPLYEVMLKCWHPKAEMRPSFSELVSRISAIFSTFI

Compound	IC50 [1] [nM]	IC50 [2] [nM]
COCCn1cc(C(=O)Nc2ccc(Oc3ccnc(-c4cnn(C)c4)c3)c(F)c2)c(=O)n(-c2ccc(F)cc2)c1=O [No. 10, N-(3-fluoro-4-((2-(1-methyl-1H-pyrazol-4-yl)pyridin-4-yl)oxy)phenyl)-3-(4-fluorophenyl)-1-(2-methoxyethyl)-2,4-dioxo-1,2,3,4-tetrahydropyrimidin-5-carboxamide]	< 10	< 10
Cn1cc(-c2cc(Oc3ccc(NC(=O)c4cn(C5CCCC5)c(=O)n(-c5ccc(F)cc5)c4=O)cc3F)ccn2)cn1 [No. 11, 1-cyclopentyl-N-(3-fluoro-4-((2-(1-methyl-1H-pyrazol-4-yl)pyridin-4-yl)oxy)phenyl)-3-(4-fluorophenyl)-2,4-dioxo-1,2,3,4-tetrahydropyrimidin-5-carboxamide]	< 10	< 10
Cn1cc(-c2cc(Oc3ccc(NC(=O)c4cn(-c5ccc(F)cc5)c(=O)n(-c5ccc(F)cc5)c4=O)cc3F)ccn2)cn1 [No. 12, N-(3-fluoro-4-((2-(1-methyl-1H-pyrazol-4-yl)pyridin-4-yl)oxy)phenyl)-1,3-bis(4-fluorophenyl)-2,4-dioxo-1,2,3,4-tetrahydropyrimidin-5-carboxamide]	> 100	> 100
CC(C)n1cc(C(=O)Nc2ccc(Oc3ccnc(-c4cnn(C)c4)c3)c(F)c2)c(=O)n(-c2ccccc2)c1=O [No. 13, N-(3-fluoro-4-((2-(1-methyl-1H-pyrazol-4-yl)pyridin-4-yl)oxy)phenyl)-1-isopropyl-2,4-dioxo-3-phenyl-1,2,3,4-tetrahydropyrimidin-5-carboxamide]	10 to 100	10 to 100
CC(C)n1cc(C(=O)Nc2ccc(Oc3ccnc(-c4cnn(C)c4)c3)c(F)c2)c(=O)n(-c2ccc(Cl)cc2)c1=O [No. 14, 3-(4-chlorophenyl)-N-(3-fluoro-4-((2-(1-methyl-1H-pyrazol-4-yl)pyridin-4-yl)oxy)phenyl)-1-isopropyl-2,4-dioxo-1,2,3,4-tetrahydropyrimidin-5-carboxamide]	< 10	< 10
Cc1ccc(-n2c(=O)c(C(=O)Nc3ccc(Oc4ccnc(-c5cnn(C)c5)c4)c(F)c3)cn(C(C)C)c2=O)cc1 [No. 15, N-(3-fluoro-4-((2-(1-methyl-1H-pyrazol-4-yl)pyridin-4-yl)oxy)phenyl)-1-isopropyl-2,4-dioxo-3-p-tolyl-1,2,3,4-tetrahydropyrimidin-5-carboxamide]	< 10	< 10
COc1ccc(-n2c(=O)c(C(=O)Nc3ccc(Oc4ccnc(-c5cnn(C)c5)c4)c(F)c3)cn(C(C)C)c2=O)cc1 [No. 16, N-(3-fluoro-4-((2-(1-methyl-1H-pyrazol-4-yl)pyridin-4-yl)oxy)phenyl)-1-isopropyl-3-(4-methoxyphenyl)-2,4-dioxo-1,2,3,4-tetrahydropyrimidin-5-carboxamide]	> 100	> 100
CC(C)n1cc(C(=O)Nc2ccc(Oc3ccnc(-c4cnn(C)c4)c3)c(F)c2)c(=O)n(-c2cccc(F)c2)c1=O [No. 17, N-(3-fluoro-4-((2-(1-methyl-1H-pyrazol-4-yl)pyridin-4-yl)oxy)phenyl)-3-(3-fluorophenyl)-1-isopropyl-2,4-dioxo-1,2,3,4-tetrahydropyrimidin-5-carboxamide]	< 10	< 10
CC(C)n1cc(C(=O)Nc2ccc(Oc3ccnc(-c4cnn(C)c4)c3)c(F)c2)c(=O)n(-c2ccccc2F)c1=O [No. 18, N-(3-fluoro-4-((2-(1-methyl-1H-pyrazol-4-yl)pyridin-4-yl)oxy)phenyl)-3-(2-fluorophenyl)-1-isopropyl-2,4-dioxo-1,2,3,4-tetrahydropyrimidin-5-carboxamide]	< 10	10 to 100
CC(C)n1cc(C(=O)Nc2ccc(Oc3ccnc(-c4cnn(C)c4)c3)c(F)c2)c(=O)n(-c2ccc(F)c(F)c2)c1=O [No. 19, 3-(3,4-difluorophenyl)-N-(3-fluoro-4-((2-(1-methyl-1H-pyrazol-4-yl)pyridin-4-yl)oxy)phenyl)-1-isopropyl-2,4-dioxo-1,2,3,4-tetrahydropyrimidin-5-carboxamide]	< 10	< 10
CC(C)n1cc(C(=O)Nc2ccc(Oc3ccnc(-c4cnn(C)c4)c3)c(F)c2)c(=O)n(-c2ccncc2)c1=O [No. 20, N-(3-fluoro-4-((2-(1-methyl-1H-pyrazol-4-yl)pyridin-4-yl)oxy)phenyl)-1-isopropyl-2,4-dioxo-3-(pyridin-4-yl)-1,2,3,4-tetrahydropyrimidin-5-carboxamide]	> 100	> 100
CC(C)n1cc(C(=O)Nc2ccc(Oc3ccnc(-c4cnn(C)c4)c3)c(F)c2)c(=O)n(-c2cnn(C)c2)c1=O [No. 21, N-(3-fluoro-4-((2-(1-methyl-1H-pyrazol-4-yl)pyridin-4-yl)oxy)phenyl)-1-isopropyl-3-(1-methyl-1H-pyrazol-4-yl)-2,4-dioxo-1,2,3,4-tetrahydropyrimidin-5-carboxamide]	10 to 100	> 100
CC(C)n1cc(C(=O)Nc2ccc(Oc3ccnc(-c4cnn(C)c4)c3)c(F)c2)c(=O)n([C@H]2CC[C@H](C)CC2)c1=O [No. 22, N-(3-fluoro-4-((2-(1-methyl-1H-pyrazol-4-yl)pyridin-4-yl)oxy)phenyl)-1-isopropyl-3-((1R,4R)-4-methylcyclohexyl)-2,4-dioxo-1,2,3,4-tetrahydropyrimidin-5-carboxamide]	10 to 100	> 100
CC(C)n1nc(C(=O)Nc2ccc(Oc3ccnc(-c4cnn(C)c4)c3)cc2)c(=O)n(-c2ccc(F)cc2)c1=O [No. 23, 4-(4-fluorophenyl)-2-isopropyl-N-(4-((2-(1-methyl-1H-pyrazol-4-yl)pyridin-4-yl)oxy)phenyl)-3,5-dioxo-2,3,4,5-tetrahydro-1,2,4-triazin-6-carboxamide]	10 to 100	10 to 100
CC(C)n1nc(C(=O)Nc2ccc(Oc3ccnc(-c4cnn(C)c4)c3)c(F)c2)c(=O)n(-c2ccc(F)cc2)c1=O [No. 24, N-(3-fluoro-4-((2-(1-methyl-1H-pyrazol-4-yl)pyridin-4-yl)oxy)phenyl)-4-(4-fluorophenyl)-2-isopropyl-3,5-dioxo-2,3,4,5-tetrahydro-1,2,4-triazine-6-carboxamide]	< 10	10 to 100
COc1ccc(-c2cnc(N)c(-c3ccc(NC(=O)c4cn(C(C)C)c(=O)n(-c5ccc(F)cc5)c4=O)cc3F)c2)cc1OC [No. 37, N-(4-(2-amino-5-(3,4-dimethoxyphenyl)pyridin-3-yl)-3-fluorophenyl)-3-(4-fluorophenyl)-1-isopropyl-2,4-dioxo-1,2,3,4-tetrahydropyrimidin-5-carboxamide]	< 10	10 to 100
CC(C)n1cc(C(=O)Nc2ccc(-c3cc(-c4cnn(C)c4)cnc3N)c(F)c2)c(=O)n(-c2ccc(F)cc2)c1=O [No. 38, N-(4-(2-amino-5-(1-methyl-1H-pyrazol-4-yl)pyridin-3-yl)-3-fluorophenyl)-3-(4-fluorophenyl)-1-isopropyl-2,4-dioxo-1,2,3,4-tetrahydropyrimidin-5-carboxamide]	< 10	< 10
COc1cc(-c2cnc(N)c(-c3ccc(NC(=O)c4cn(C(C)C)c(=O)n(-c5ccc(F)cc5)c4=O)cc3F)c2)ccc1OC[C@H]1COCCO1 [No. 39, (R)—N-(4-(5-(4-((1,4-dioxan-2-yl)methoxy)-3-methoxyphenyl)-2-aminopyridin-3-yl)-3-fluorophenyl)-3-(4-fluorophenyl)-1-isopropyl-2,4-dioxo-1,2,3,4-tetrahydropyrimidin-5-carboxamide]	< 10	10 to 100
CC(C)n1cc(C(=O)Nc2ccc(-c3cc(-c4cn[nH]c4)cnc3N)c(F)c2)c(=O)n(-c2ccc(F)cc2)c1=O [No. 40, N-(4-(2-amino-5-(1H-pyrazol-4-yl)pyridin-3-yl)-3-fluorophenyl)-3-(4-fluorophenyl)-1-isopropyl-2,4-dioxo-1,2,3,4-tetrahydropyrimidin-5-carboxamide]	> 100	> 100
CC(C)n1cc(C(=O)Nc2ccc(Oc3ccnc4[nH]cc(Br)c34)c(F)c2)c(=O)n(-c2ccc(F)cc2)c1=O [No. 42]	< 10	< 10
CC(C)n1cc(C(=O)Nc2ccc(Oc3ncnc4[nH]cc(-c5ccccc5)c34)c(F)c2)c(=O)n(-c2ccc(F)cc2)c1=O [No. 44, N-(3-fluoro-4-((5-phenyl-7H-pyrrolo[2,3-d]pyrimidin-4-yl)oxy)phenyl)-3-(4-fluorophenyl)-1-isopropyl-2,4-dioxo-1,2,3,4-tetrahydropyrimidin-5-carboxamide]	< 10	10 to 100
CC(C)n1cc(C(=O)Nc2ccc(Oc3ccnc4c3CC(=O)N4)c(F)c2)c(=O)n(-c2ccc(F)cc2)c1=O [No. 45, N-(3-fluoro-4-((2-oxo-2,3-dihydro-1H-pyrrolo[2,3-b]pyridin-4-yl)oxyl)phenyl)-3-(4-fluorophenyl)-1-isopropyl-2,4-dioxo-1,2,3,4-tetrahydropyrimidin-5-carboxamide]	10 to 100	> 100
CC(C)n1cc(C(=O)Nc2ccc(Oc3ccnc4c3OCCN4)cc2)c(=O)n(-c2ccc(F)cc2)c1=O [No. 48, N-(4-((3,4-dihydro-2H-pyridino[3,2-b][1,4]oxazin-8-yl)oxy)phenyl)-3-(4-fluorophenyl)-1-isopropyl-2,4-dioxo-1,2,3,4-tetrahydropyrimidin-5-carboxamide]	< 10	10 to 100
CC(C)n1cc(C(=O)Nc2ccc(Oc3ccnc4c3CCN4)c(F)c2)c(=O)n(-c2ccc(F)cc2)c1=O [No. 51, N-(4-((2,3-dihydro-1H-pyrrolo[2,3-b]pyridin-4-yl)oxy)-3-fluorophenyl)-3-(4-fluorophenyl)-1-isopropyl-2,4-dioxo-1,2,3,4-tetrahydropyrimidin-5-carboxamide]	< 10	< 10
